# Patent US20250326792A1, “A FORMULATION FOR TREATMENT OF PIGMENTARY DISORDERS” (priority 2022, published 2025)
# Tests used:
# B16F10 cells = assay: Melanin content assay in B16F10 cells; type: cell-based; settings: B16F10 CELLS; 100 μM
# Protocol: (§1) Culture and maintenance of cell lines: B16F10 cells were cultured in RPMI containing 10% fetal bovine serum, 100 units per millilitre (U/mL) penicillin, 0.1 mg/mL streptomycin, and 0.25 microgram per millilitre (μg/mL) amphotericin B at 37 degrees Celsius in a humidified 95% air/5% CO2 incubator. Drug treatment was done 24 hours after seeding. Cells were harvested 48 hours later and melanin content and tyrosinase activity determined in triplicate. NHEM cells were cultured in DMEM containing 10% fetal bovine serum, 100 units per milliliter (U/mL) penicillin, 0.1 mg/mL streptomycin, and 0.25 microgram per millilitre (μg/mL) amphotericin B at 37 degrees Celsius in a humidified 95% air/5% CO2 incubator. Drug treatment was done 24 hours after seeding. Cells were harvested 48 hours later and melanin content and tyrosinase activity determined in triplicate.
# (§2) IS103 was dissolved in water for injection or DMSO to prepare stock solution of about 50 mg/ml. The stock solution was used for preparation of subsequent dilutions in solvent to achieve working dilutions for treatment ranging 0.1 μg/ml to 1000 μg/ml.
# Cells were seeded in a 6-well plate (2×10^4 cells/well) and incubated overnight to allow the cells to adhere. After treating with various test samples for 4 or 5 days, cells were washed with phosphate-buffered saline (PBS), trypsinized, counted, and then lysed in 1 N NaOH at 100° C. for about 1 hour. The melanin content in each sample was calculated by comparison of absorbance at 400 nm of unknown samples with a standard curve obtained using synthetic melanin. […] B16F10 and NHEM cells were treated with different concentrations of IS103 ranging from 0.1 to 1000 μg/ml and analysed melanin contents in cells. […] To assess the toxicity of the IS103 peptide, cell viability was analyzed by MTT assay.
# NHEM cells = assay: Melanin content assay in NHEM cells; type: cell-based, Human; settings: NHEM CELLS
# Protocol: as §1, §2
# Cells were seeded in a 6-well plate (2×10^4 cells/well) and incubated overnight to allow the cells to adhere. After treating with various test samples for 4 or 5 days, cells were washed with phosphate-buffered saline (PBS), trypsinized, counted, and then lysed in 1 N NaOH at 100° C. for about 1 hour. The melanin content in each sample was calculated by comparison of absorbance at 400 nm of unknown samples with a standard curve obtained using synthetic melanin. IS103 enhances melanin synthesis in a dose dependent manner without significant toxicity. B16F10 and NHEM cells were treated with different concentrations of IS103 ranging from 0.1 to 1000 μg/ml and analysed melanin contents in cells. It was observed that IS103 was able to enhance pigmentation of B16F10 and NHEM cells in a dose-dependent manner (Table 18 and FIGS. 4 and 5). […] To assess the toxicity of the IS103 peptide, cell viability was analyzed by MTT assay.
# Tyrosinase [1] = assay: Tyrosinase activity assay (L-DOPA) in B16F10 cells; type: cell-based; settings: for increase in Tyrosinase activity when compared to control: B16F10 cells, positive control
# Protocol: as §1, §2
# (§3) Tyrosinase activity was determined using L-DOPA as a substrate. Briefly, B16F10 and NHEM cells were seeded in a 6-well plate (2×10^4 cells/well) and incubated for overnight. The cells were then treated with or without the test compounds for 46 hours and were washed twice with ice cold PBS and extracted by sonication in 100 μl of 0.1M Tris-HCl buffer (pH 7.2) containing 1% Nonidet P-40, 0.01% SDS, 100 μM phenyl methyl sulfonyl fluoride, and 1 μg/ml aprotinin and then centrifuged at 10,000 g for about 10 minutes at 4° C. The supernatants collected were used for enzyme assay and its protein content was estimated by method of Bradford using BSA as standard. Samples of cell extract supernatant were incubated in duplicate for 1 hour at 37° C. in 1 ml of 0.1M sodium phosphate buffer (pH 7.4) containing 0.1% L-DOPA. The absorbance was then monitored at 450 nm and compared with purified mushroom tyrosinase (Sigma). The standard curve was prepared limiting linearity within the range of experimental value.
# Tyrosinase [2] = assay: Tyrosinase activity assay (L-DOPA) in NHEM cells; type: cell-based, Human; settings: for increase in Tyrosinase activity when compared to control: NHEM cells, positive control
# Protocol: as §1, §2, §3
# [3] = TYROSINASE ACTIVITY table, B16F10 CELLS, 100 μM
# [4] = TYROSINASE ACTIVITY table, NHEM CELLS, 100 μM
Compound,% increase in melanin content compared to control (B16F10 cells) [%],Fold change in melanin content (B16F10 cells),% increase in melanin content compared to control (NHEM cells; 100 μM) [%],Fold change in melanin content (NHEM cells; 100 μM),increase in Tyrosinase activity when compared to control (Tyrosinase [1]; 100 μM) [%],% increase in tyrosinase activity compared to control (Tyrosinase [1]; [3]) [%],Change in tyrosinase activity (Tyrosinase [1]; [3]),increase in Tyrosinase activity when compared to control (Tyrosinase [2]; 100 μM) [%],% increase in tyrosinase activity compared to control (Tyrosinase [2]; [4]) [%],Tyrosinase activity (Tyrosinase [2]; [4]),% increase in melanin content compared to control (NHEM cells; 100 nM) [%],increase in Tyrosinase activity when compared to control (Tyrosinase [1]; 100 nM) [%],"% increase in tyrosinase activity compared to control (Tyrosinase [1]; TYROSINASE ACTIVITY table, B16F10 CELLS, 100 nM) [%]",increase in Tyrosinase activity when compared to control (Tyrosinase [2]; 100 nM) [%],"% increase in tyrosinase activity compared to control (Tyrosinase [2]; TYROSINASE ACTIVITY table, NHEM CELLS, 100 nM) [%]"
"CC(C)Cn1c(=O)n(C)c(=O)c2[nH]cnc21 [IBMX, 3-isobutyl-1-methylxanthine, reference compound]",180,2.8 ± 0.20,160,2.6 ± 0.20,59,59,74.0 ± 5.10,56,56,70.3 ± 4.20,–,–,–,–,–
"α-Melanocyte Stimulating Hormone [α-MSH, reference compound]",–,–,–,–,–,–,–,–,–,–,190,57.33,57.33,56.33,56.33
